Results from patent publication US20030088057A1, “PEPTIDE SUBSTRATES PHOSPHORYLATED BY P21-ACTIVAGED PROTEIN KINASE STATEMENT REGARDING FEDERALLY SPONSORED REASEARCH OR DEVELOPMENT” (priority 1998, published 2003).
No end group written: not given here.

Columns and labels:
[1] = system: γ-PAK; assay: Rates of phosphorylation of synthetic peptides by γ-PAK; assay type: biochemical, rabbit
Excerpt: (§1) A. Materials. γ-PAK was purified from rabbit reticulocytes to apparent homogeneity by chromatography on DEAE-cellulose, SP-Sepharose, protamine agarose, and FPLC on Mono S and Mono Q. Histone I (type IIIS), mixed histone (type IIAS), trypsin (L-1-tosylamido-2-phenylethyl chloromethyl ketone treated), soybean trypsin inhibitor, bovine serum albumin (fatty acid free), and myelin basic protein were purchased from Sigma. Purified histones 2B and 4 were purchased from Boehringer-Mannheim. Myosin light chain from rabbit skeletal muscle was a gift from Dr. James Stull, University of Texas Southwestern Medical Center, Dallas, Tex.; rat prolactin was provided by Dr. Ameae Walker, University of California, Riverside, Calif.; and the purified catalytic subunit of cAMP-dependent protein kinase from bovine heart was a gift from Dr. William H. Fletcher, J. L. Pettis Memorial V. A. Hospital, Loma Linda, Calif. Protein kinase C was purified from bovine brain according to the procedure of Walton et al. [Walton, G. M., et al., Anal Biochem., 161:425-437 (1987)], with modifications [Venema, R. C., et al., J. Biol. Chem., 266:5298-5302 (1991)]. The clone for GST-Cdc42 was generously provided by Dr. Channing Der, University of North Carolina, Chapel Hill, N.C. Cellulose thin-layer chromatography sheets were from Kodak.
D. Phosphorylation Assays. Phosphorylation of protein substrates was carried out in 35 μL reaction mixtures containing 20 mM Tris-HCl, pH 7.4, 10 mM MgCl2, 30 mM 2-mercaptoethanol, 0.2 mM ATP (specific activity =1000 cpm/pmol), 2 μg of protein substrate, and 20 units of active γ-PAK (an enzyme unit is defined as the amount of enzyme that incorporates 1 pmol of phosphate into histone IIAS/ min at 30°. Under these conditions, phosphate incorporation was linear and initial rates of phosphorylation were measured. After incubation at 30° C. for 15 min, reactions were terminated by the addition of 5 μL of 100 mM nonlabeled ATP and sample buffer for gel electrophoresis [Hathaway, G. M., et al., Methods Enzymol., 60:495-511 (1979)]. Reaction mixtures were subjected to SDS-PAGE on 15% polyacrylamide gels followed by autoradiography. Phosphorylation was quantified by excising the protein band and counting the incorporated ^32P in a liquid scintillation counter. The specific activity of γ-PAK was 400 pmol min^−1 μg^−1 as reported previously using 0.2 mM ATP and 1 mg/mL mixed histone as substrate [Rooney, R. D., et al., (1996), supra].
(§2) Assays with peptides (I mM) were carried out with γ-PAK (1.6-5.6 units) in 25 μL reaction mixtures incubated for 30 min at 30° C. under conditions described above, except that 0.4 mg/mL of bovine serum albumin was added and the specific activity of ATP was 300-2000 cpm/pmol. Reactions were terminated with 5 μL of 100 mM ATP, and the amount of ^32p incorporated was quantitated by precipitation of 20 μL aliquots on P81 phosphocellulose paper with 75 mM H3PO4 as described previously [Bensen, E. S., et al., Biochim. Biophys. Acta, 1292:249-258 (1996)]. Peptides containing only one basic amino acid were analyzed by thin-layer electrophoresis on cellulose sheets for 2 h at 600 V with pyridine/acetic acid/water (10:100:890), pH 3.5, as solvent, as described previously [Bensen, E. S., et al., supra]. Activation of γ-PAK by autophosphorylation in the presence of Cdc42(GTPγS) was performed as previously described [Jakobi, R., et al., supra]. γ-PAK was also activated by limited digestion with trypsin as described previously [Rooney, R. D., et al., (1996), supra].

[2] = system: γ-PAK; assay: Kinetic parameters (Km, Vmax) for phosphorylation of synthetic peptides by γ-PAK; assay type: biochemical, rabbit
Description: as §2

[3] = system: PKC; assay: Rates of phosphorylation of synthetic peptides by PKC; assay type: biochemical, bovine
Excerpt: as §1
(§3) Reactions with PKA (10.5 units) were carried out under the same conditions as with γ-PAK except that 0.14 mM ATP was used. Reactions with PKC (3.4 units) were performed as with PKA, with the addition of 0.4 mM CaCl2, phosphatidylinositol (15 μg/mL), phosphatidylserine (15 μg/ mL), and 1,2-diolein (3 μg/mL), as described [Tuazon, P. T., et al., (1989), supra]. A unit of PKA or PKC is defined as the amount of enzyme that incorporates 1 pmol of phosphate/min at 30° C. into histone IIAS or histone 1, respectively.
PKA and PKC are known to require basic amino acids on the N-terminal side of the phosphorylatable serine/ threonine. To distinguish their substrate specificities from that of γ-PAK, the relative rates of phosphorylation were determined with the synthetic peptide substrates using the conditions for γ-PAK, with the addition of Ca^2+ and phospholipids for PKC. The rates shown in Table 5 are calculated with equivalent units of enzyme; the rate of phosphorylation of the peptide AKRASAA (SEQ ID NO:6) is taken as 100% for all three enzymes. As would be expected, PKA preferentially phosphorylated the peptides that contained RR or RK at the −3 and −2 positions and with […] residues or proline at the −4 and −1 positions inhibitory. PKC recognized SKR>RKS>KKS. The most notable difference between γ-PAK and PKA or PKC is the effect of acidic residues on the susceptibility of the peptide to be phosphorylated. An acidic residue in the −1 or −4 position was beneficial for γ-PAK but was detrimental for both PKA and PKC (Table 5). […] In addition, γ-PAK could not tolerate an arginine in the −3 position when lysine was in the −2 position.

[4] = target: T1, PKA (Bos taurus, UniProt P00517); assay: Rates of phosphorylation of synthetic peptides by PKA; assay type: biochemical, bovine
T1 construct: the purified catalytic subunit of cAMP-dependent protein kinase from bovine heart was a gift; from tissue; host or cells: bovine heart (gift from Dr. William H. Fletcher)
Excerpt: as §1, with “Myosin light chain from rabbit skeletal muscle was a gift from Dr. James Stull, University of Texas Southwestern Medical Center, Dallas, Tex.; rat prolactin was provided by Dr. Ameae Walker, University of California, Riverside, Calif.; and the purified catalytic subunit of cAMP-dependent protein kinase from bovine heart was a gift from Dr. William H. Fletcher, J. L. Pettis Memorial V. A. Hospital, Loma Linda, Calif.” left out
as §3
PKA and PKC are known to require basic amino acids on the N-terminal side of the phosphorylatable serine/ threonine. To distinguish their substrate specificities from that of γ-PAK, the relative rates of phosphorylation were determined with the synthetic peptide substrates using the conditions for γ-PAK, with the addition of Ca^2+ and phospholipids for PKC.

[5] = target: T2, γ-PAK (Oryctolagus cuniculus, UniProt Q29502); assay: Phosphorylation of heptapeptides by Cdc42-activated γ-PAK with ATP(Mg) and ATP(Mn); assay type: biochemical, rabbit; details: γ-PAK 2.5 units, Cdc42(GTPγS)-activated; 10 mM MgCl2 or 6 mM MnCl2
T2 construct: γ-PAK was purified from rabbit reticulocytes to apparent homogeneity; from tissue; host or cells: rabbit reticulocytes (γ-PAK)
T2 sequence (Q29502 2-524 limits assumed): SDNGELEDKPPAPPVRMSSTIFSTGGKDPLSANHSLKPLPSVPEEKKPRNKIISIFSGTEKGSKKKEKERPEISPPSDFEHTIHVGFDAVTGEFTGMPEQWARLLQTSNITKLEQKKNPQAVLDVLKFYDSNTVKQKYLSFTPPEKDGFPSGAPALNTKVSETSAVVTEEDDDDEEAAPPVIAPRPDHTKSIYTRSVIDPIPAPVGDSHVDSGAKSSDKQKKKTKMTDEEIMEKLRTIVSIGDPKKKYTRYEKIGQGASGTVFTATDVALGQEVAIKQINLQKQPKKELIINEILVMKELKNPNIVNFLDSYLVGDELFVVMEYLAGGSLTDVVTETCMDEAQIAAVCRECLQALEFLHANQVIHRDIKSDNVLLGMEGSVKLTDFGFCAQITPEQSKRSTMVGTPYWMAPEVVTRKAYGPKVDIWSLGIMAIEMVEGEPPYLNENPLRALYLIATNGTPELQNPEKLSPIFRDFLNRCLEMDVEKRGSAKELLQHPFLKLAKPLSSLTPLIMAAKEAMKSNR
Description: Synthetic heptapeptides were used to examine the activity of γ-PAK with manganese and magnesium. The peptides were incubated with γ-PAK (2.5 units), activated by autophosphorylation in the presence of Cdc42(GTPγS) and 10 mM MgCl2 or 6 mM MnCl2 as described under Experimental Procedures.

Sequence of γ-PAK (Q29502 249-500 limits assumed): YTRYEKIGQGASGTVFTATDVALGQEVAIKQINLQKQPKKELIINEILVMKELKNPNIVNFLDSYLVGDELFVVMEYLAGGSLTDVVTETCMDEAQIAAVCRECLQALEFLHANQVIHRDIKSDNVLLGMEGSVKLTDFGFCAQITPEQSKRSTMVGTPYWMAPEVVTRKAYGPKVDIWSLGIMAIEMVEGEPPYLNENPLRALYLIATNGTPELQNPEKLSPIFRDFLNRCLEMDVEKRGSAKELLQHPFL

- increase of Km compared to AKRASAA [2]: ~3 fold
- increase of Vmax compared to AKRASAA [2]: 6 fold
- overall rate of phosphorylation (Vmax/Km) compared to AKRASAA [2]: ~2.2 fold
- Vmax ([2]; Table 3, influence of acidic amino acids): 6.62 pmol/min
- Km ([2]; Table 3, influence of acidic amino acids, read-out: Km): 1.35 mM
- Vmax ([2]; text summary b32): 6.62 pmol/min
- 32P incorporated ([4]; PKA (10.5 units), 0.14 mM ATP): 1.8 pmol/unit
- 32P incorporated, % ([4]; PKA, AKRASAA taken as 100%): 38%
- phosphorylation using ATP(Mg) or ATP(Mn) (in words) [5]: good substrates
Substance: AKRESAA (AKRESAA-NH2) [synthetic peptide with an amide C-terminal group]
- rel rate (%) ([1]; Cdc42(GTPγS)-activated γ-PAK, peptide 1 mM, KKRKSAA = 100): 295%
- rel rate (%) ([1]; proteolytically (trypsin) activated γ-PAK, peptide 1 mM, compared to KKRKSAA = 100): 247%
- 32P incorporated ([1]; proteolytically activated γ-PAK (5.6 units), peptide 1 mM, 30 min at 30° C.): 750 pmol/min/µg
- 32P incorporated, % ([1]; γ-PAK, AKRASAA taken as 100%): 176%
- 32P incorporated ([1]; γ-PAK, calculated with equivalent units of enzyme): 47.2 pmol/unit
- rate of phosphorylation compared to AKRASAA ([1]; γ-PAK, relative to AKRASAA): 175%
- 32P incorporated ([3]; PKC (3.4 units), with Ca2+ and phospholipids, 0.14 mM ATP): 0.4 pmol/unit
- 32P incorporated, % ([3]; PKC, AKRASAA taken as 100%): 12%
